Source: patent publication US7704995B2 (Exelixis, Inc., priority 2003, dated 2010)
pIC50: −log10 of the molar value. Read-outs that look alike come from different tables or passages of the source.

Molecular target: T1, Chk1 (Homo sapiens, UniProt O14757)
T1 construct: purchased Upstate Biotechnology
T1 sequence (O14757 1-476): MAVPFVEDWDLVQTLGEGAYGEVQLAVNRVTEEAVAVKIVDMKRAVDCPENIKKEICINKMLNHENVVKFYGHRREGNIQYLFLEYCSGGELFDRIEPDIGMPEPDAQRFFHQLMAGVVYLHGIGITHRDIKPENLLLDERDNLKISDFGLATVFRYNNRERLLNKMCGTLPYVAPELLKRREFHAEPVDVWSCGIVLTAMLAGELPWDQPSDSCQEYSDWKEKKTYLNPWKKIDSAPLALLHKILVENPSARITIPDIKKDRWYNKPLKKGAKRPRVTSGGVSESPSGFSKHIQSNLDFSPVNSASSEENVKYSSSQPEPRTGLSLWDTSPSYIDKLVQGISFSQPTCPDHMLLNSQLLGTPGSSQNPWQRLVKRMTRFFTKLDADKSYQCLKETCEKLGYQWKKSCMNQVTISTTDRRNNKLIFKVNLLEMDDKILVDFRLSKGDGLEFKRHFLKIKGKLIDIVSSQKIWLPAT
Test: Chk1 kinase assay: incorporation of γ-33P ATP into immobilized myelin basic protein
Assay type: biochemical
Conditions: read-out: Chk1 IC50
In short: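 Incorporation of γ-33P into myelin basic protein coated on plates was scintillation-counted after 1 h at room temperature, duplicate points. Unlabeled ATP was 10 μM with 10 nM Chk1, 30 μM with 20 nM Chk2; buffer Hepes pH 7.6, MgCl2, DTT, 1% DMSO. Output IC50, optionally converted to Ki.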

[1] = Table 11, Chk1 only, class symbols A-D

pIC50	Structure (SMILES)	other results
6.00 to 7.30	CNC(=O)c1nc(-c2cccc(C(=O)NCc3cc(F)cc4c3OCOC4)c2)cnc1N [Example 208, 3-amino-6-[3-({[(6-fluoro-4H-1,3-benzodioxin-8-yl)methyl]amino}carbonyl)phenyl]-N-methylpyrazine-2-carboxamide]	–
6.00 to 7.30	CNC(=O)c1nc(-c2cccc(C(=O)N[C@@H](C)c3ccccc3)c2)cnc1N [Example 145, 3-amino-N-methyl-6-[3-({[(1S)-1-phenylethyl]amino}carbonyl)phenyl]pyrazine-2-carboxamide]	–
> 7.30	CNC(=O)c1nc(-c2cccc(CN[C@@H]3c4ccccc4C[C@@H]3O)c2)cnc1N [Example 421, 3-amino-6-[3-({[(1R,2S)-2-hydroxy-2,3-dihydro-1H-inden-1-yl]amino}methyl)phenyl]-N-methylpyrazine-2-carboxamide]	–
6.00 to 7.30	CNC(=O)c1nc(-c2cccc(CNCc3cccc(C(F)(F)F)c3)c2)cnc1N [Example 426, 3-amino-N-methyl-6-{3-[({[3-(trifluoromethyl)phenyl]methyl}amino)methyl]phenyl}pyrazine-2-carboxamide]	–
–	Nc1ncc(-c2cccc(C(=O)NCc3ccc(-c4csnn4)cc3)c2)nc1C(=O)N[C@H]1CCCNC1 [Example 963, 3-amino-N-[(3S)-piperidin-3-yl]-6-{3-[({[4-(1,2,3-thiadiazol-4-yl)phenyl]methyl}amino)carbonyl]phenyl}pyrazine-2-carboxamide]	pIC50 [1]: > 7.30
–	CNC(=O)c1nc(-c2cccc(CN[C@@H]3CCc4cc(-c5ccccc5)ccc4C3)c2)cnc1N [Example 497, 3-amino-N-methyl-6-[3-({[(2R)-6-phenyl-1,2,3,4-tetrahydronaphthalen-2-yl]amino}methyl)phenyl]pyrazine-2-carboxamide]	pIC50 (Table 11, Chk1 only): 6.00 to 7.30
5.00 to 6.00	CNC(=O)c1nc(-c2cccc(C(=O)NC(C)(C)c3ccccc3)c2)cnc1N [Example 225, 3-amino-N-methyl-6-(3-{[(1-methyl-1-phenylethyl)amino]carbonyl}phenyl)pyrazine-2-carboxamide]	–
–	Nc1ncc(-c2cccc(CNC(=O)COc3ccc(OC(F)(F)F)cc3)c2)nc1C(=O)N[C@H]1CCCNC1 [Example 988, 3-amino-N-[(3S)-piperidin-3-yl]-6-[3-({[({4-[(trifluoromethyl)oxy]phenyl}oxy)acetyl]amino}methyl)phenyl]pyrazine-2-carboxamide]	pIC50 [1]: > 7.30
–	CSc1ccc(CNC(=O)c2cccc(-c3cnc(N)c(C(=O)N[C@H]4CCN(C(=O)OC(C)(C)C)C4)n3)c2)cc1 [Example 741, 1,1-dimethylethyl (3S)-3-{[(3-amino-6-{3-[({[4-(methylthio)phenyl]methyl}amino)carbonyl]phenyl}pyrazin-2-yl)carbonyl]amino}pyrrolidine-1-carboxylate]	pIC50 (Table 11, Chk1 only): 5.00 to 6.00
–	Nc1ncc(-c2cccc(CN[C@@H]3CCc4ccccc43)c2)nc1-c1nc(C2CCCNC2)n[nH]1 (stereo partly drawn) [Example 683, 5-(3-{[(1R)-2,3-dihydro-1H-inden-1-ylamino]methyl}phenyl)-3-(3-piperidin-3-yl-1H-1,2,4-triazol-5-yl)pyrazin-2-amine]	pIC50 (Table 11, Chk1 only): > 7.30
> 7.30	CNC(=O)c1nc(-c2cccc(CNCc3cc(F)c(F)c(F)c3)c2)cnc1N [Example 419, 3-amino-N-methyl-6-[3-({[(3,4,5-trifluorophenyl)methyl]amino}methyl)phenyl]pyrazine-2-carboxamide]	–
–	Cc1cc(Cl)cc(Cl)c1CNC(=O)c1cccc(-c2cnc(N)c(C(=O)N[C@H]3CCCNC3)n2)c1 [Example 951, 3-amino-6-[3-({[(2,4-dichloro-6-methylphenyl)methyl]amino}carbonyl)phenyl]-N-[(3S)-piperidin-3-yl]pyrazine-2-carboxamide]	pIC50 [1]: > 7.30
–	Nc1ncc(-c2cccc(CN[C@H]3CCc4ccccc43)c2)nc1C(=O)NC1CN2CCC1CC2 (stereo partly drawn) [Example 819, 3-amino-N-1-azabicyclo[2.2.2]oct-3-yl-6-(3-{[(1S)-2,3-dihydro-1H-inden-1-ylamino]methyl}phenyl)pyrazine-2-carboxamide]	pIC50 [1]: 6.00 to 7.30
–	Cc1nc(-c2nc(-c3cccc(C(=O)N[C@H]4CCc5ccccc54)c3)cnc2N)nn1-c1ccncc1 [Example 793, 3-[5-amino-6-(5-methyl-1-pyridin-4-yl-1H-1,2,4-triazol-3-yl)pyrazin-2-yl]-N-[(1S)-2,3-dihydro-1H-inden-1-yl]benzamide]	pIC50 (Table 11, Chk1 only): 5.00 to 6.00
5.00 to 6.00	Nc1ncc(-c2cccc(C(=O)NCc3ccccc3)c2)nc1C(=O)NC1CC1 [Example 270, 3-amino-N-cyclopropyl-6-(3-{[(phenylmethyl)amino]carbonyl}phenyl)pyrazine-2-carboxamide]	–
–	CNC(=O)c1nc(-c2cccc(CNC3CCc4cc(OCC#N)ccc43)c2)cnc1N (stereo not shown) [Example 508, 3-amino-6-{3-[({5-[(cyanomethyl)oxy]-2,3-dihydro-1H-inden-1-yl}amino)methyl]phenyl}-N-methylpyrazine-2-carboxamide]	pIC50 (Table 11, Chk1 only): 6.00 to 7.30
–	Nc1ncc(-c2cccc(CN[C@H]3CCCc4ccccc43)c2)nc1C(=O)N[C@H]1CCNC1 [Example 808, 3-amino-N-[(3S)pyrrolidin-3-yl]-6-(3-{[(1S)-1,2,3,4-tetrahydronaphthalen-1-ylamino]methyl}phenyl)pyrazine-2-carboxamide]	pIC50 [1]: > 7.30
≤ 5.00	CNC(=O)c1nc(-c2noc(-c3ccccc3)n2)cnc1N [Example 69, 3-amino-N-methyl-6-(5-phenyl-1,2,4-oxadiazol-3-yl)pyrazine-2-carboxamide]	–
≤ 5.00	COc1ccccc1-c1cnc(N)c(C(N)=O)n1 [Example 17, 3-amino-6-[2-(methyloxy)phenyl]pyrazine-2-carboxamide]	–
≤ 5.00	CNC(=O)c1nc(-c2cccc(C(=O)NC3c4ccccc4-c4ccccc43)c2)cnc1N [Example 284, 3-amino-6-{3-[(9H-fluoren-9-ylamino)carbonyl]phenyl}-N-methylpyrazine-2-carboxamide]	–
–	Nc1ncc(-c2cccc(C(=O)NCc3ccc(F)c(F)c3)c2)nc1C(=O)N[C@H]1CCCCNC1 [Example 1008, 3-amino-N-[(3S)-azepan-3-yl]-6-[3-({[(3,4-difluorophenyl)methyl]amino}carbonyl)phenyl]pyrazine-2-carboxamide]	pIC50 [1]: > 7.30
6.00 to 7.30	CNC(=O)c1nc(-c2cccc(C(=O)NCc3cccc(C)c3)c2)cnc1N [Example 259, 3-amino-N-methyl-6-[3-({[(3-methylphenyl)methyl]amino}carbonyl)phenyl]pyrazine-2-carboxamide]	–
–	Nc1ncc(-c2cccc(CO)c2)nc1-c1nc(-c2ccccn2)n[nH]1 [Example 682, {3-[5-amino-6-(3-pyridin-2-yl-1H-1,2,4-triazol-5-yl)pyrazin-2-yl]phenyl}methanol]	pIC50 (Table 11, Chk1 only): 5.00 to 6.00
6.00 to 7.30	CNC(=O)c1nc(-c2cccc(C(=O)N[C@@H]3CCN(Cc4ccccc4)C3)c2)cnc1N [Example 197, 3-amino-N-methyl-6-[3-({[(3R)-1-(phenylmethyl)pyrrolidin-3-yl]amino}carbonyl)phenyl]pyrazine-2-carboxamide]	–
> 7.30	CNC(=O)c1nc(-c2cccc(C(=O)NCc3ccc(SC)cc3)c2)cnc1N [Example 216, 3-amino-N-methyl-6-{3-[({[4-(methylthio)phenyl]methyl}amino)carbonyl]phenyl}pyrazine-2-carboxamide]	–
